Key:
DesR (SLG_12870) = target: T1, DesR (SLG_12870) (Sphingobium sp. SYK-6, UniProt G2IQU0); experiment: EMSA, inhibition of DNA binding by purified DesR; details: effector (derepression); […] DesR, […] DIG-labelled desB, ligM or desR upstream probes, […] compound, pH […] °C
T1 construct: homodimer (42 kDa by SEC)
T1 sequence (G2IQU0 1-172): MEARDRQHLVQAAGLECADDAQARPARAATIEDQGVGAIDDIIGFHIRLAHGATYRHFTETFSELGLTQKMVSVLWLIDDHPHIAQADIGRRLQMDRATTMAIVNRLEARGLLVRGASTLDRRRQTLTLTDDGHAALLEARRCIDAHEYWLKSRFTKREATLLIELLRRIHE

[1] = target: DesR, MarR-type transcriptional regulator (SLG_12870) of Sphingobium sp. SYK-6, His tag-fused (Sphingobium sp. SYK-6); experiment: SEC; purified DesR (ca. 400 µg) on Superdex 200 Increase 10/300GL, 10 mM KH2PO4-K2HPO4 buffer (pH 7.4) with 140 mM NaCl, 1.0 ml/min; mass estimated against gel-filtration calibration kits (HMW and LMW)
[2] = test system: T2, DesR (His-DesR) (Sphingobium sp. SYK-6), ORF:abc5f351; experiment: EMSA; details: EMSA: 20 mM HEPES pH 7.6, 1 mM EDTA, 10 mM (NH4)2SO4, 1 mM DTT, 0.2% Tween 20, 30 mM KCl, 1 ug poly[d(I-C)], 500 pM probe, 20 C, 20 min
T2 sequence: T1 sequence (G2IQU0 1-172)

**Q.** `COc1cc(C(=O)O)cc(OC)c1O` [SA, syringate] was tested. Which “EMSA, inhibition of DNA binding by purified DesR” value (DesR (SLG_12870)) did it give?
**A.** decrease in the shift bands of the three probes was also observed in a concentration-dependent manner

**Q.** Which “EMSA, inhibition of DNA binding by purified DesR” value (DesR (SLG_12870)) does the source give for `COc1cc(C(=O)O)ccc1O` [VA, vanillate] here?
**A.** In the presence of VA, shift bands of these three probes decreased in a concentration-dependent manner

**Q.** For “DesR, MarR-type transcriptional regulator (SLG_12870) of Sphingobium sp. SYK-6, His tag-fused (natural protein)”, which stoichiometry N [1] is on record?
**A.** 2

**Q.** How did the binding [2] turn out when “GCCGTTCCCCTCTCAGGCGCTCGAGATCGACAAAGGTCCGCGCCTTGCGCCGGATCAAGGACAGAGCTTGGCCGTGGACGGCCCGGAGTGACCGGATTTTCCGGCCGGTTTCACGCACTGCCCATTCGAAAAAATTTCGTTTGTGTCACATACAGAAGTTCGGCAGTCTGCCGGCATTGCTCAGCACCGGGCGGACCCGGAAGCCGAACATGCAGGAGAGGTCATATGGCAAAGATCATCGGCGGTTT (double strand) [desBp1]” was run?
**A.** binds
